This note sets out measurements from patent US20240368181A1, “QUINOXALINE DERIVATIVES AND USES THEREOF” (Black Diamond Therapeutics, Inc., priority 2021, published 2024).

The structures appear in SMILES notation. A value given as a limit tells only on which side of the number the result lay.

Holding throughout (assay type): cell-based
For test [1], the system named is SNU-16 (FGFR2-amplification) cells. The test can be described thus: cell proliferation assay (CellTiterGlo), SNU-16 cells. The conditions noted are these: Homo sapiens, 72 hours. The gist of the method: (§1)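 To assess antiproliferative activity, plated cells receive test compound across a concentration range, with DMSO as vehicle control. Remaining viable cells are quantified from intracellular ATP by luminescence. Growth relative to vehicle-treated cells gives the IC50.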
Background: In ATP-based viability assays light output follows the ATP content of the culture.

In test [2] the test system is UM-UC-14 (FGFR3-S249C) cells. Nature of the test: cell proliferation assay (CellTiterGlo), UM-UC-14 cells. As to conditions: UMUC14, 72 h. The gist of the method: as §1
Test [3] relates to DMS-114 (FGFR1 overexpression) cells. The test can be described thus: cell proliferation assay (CellTiterGlo), DMS-114 cells. As to conditions: Homo sapiens, DMS-114, 72 h. In outline: as §1
The test system of test [4] is RT-112 (FGFR3-Tacc3 fusion) cells. The test can be described thus: cell proliferation assay (CellTiterGlo), RT-112 cells. The conditions noted are these: Homo sapiens, RT-112, RT112 cells, 72 hours. The gist of the method:
as §1

`Cc1nc2ccc(Oc3ccc4ncc(-c5cnn(C6CC(C)(O)C6)c5)nc4c3Cl)cc2[nH]1` (stereo not drawn) [Compound 250]: the half-inhibitory concentration (IC50) (commonly the concentration needed to halve the response being measured) was < 20 nM in test [1], 20 to 100 nM in test [2], ≥ 400 nM in test [3] and < 20 nM in test [4].

For `Cc1nc2ccc(Oc3ccc4ncc(-c5cnn(CCN6CC(F)(F)C6)c5)nc4c3Cl)cc2[nH]1` [Compound 251], the IC50 in test [1] was 20 to 100 nM; in test [2] it was 20 to 100 nM; in test [3], ≥ 400 nM; in test [4] it was 20 to 100 nM.

Consider `Cc1nc2ccc(Oc3ccc4ncc(-c5cnn(CCN6CCC(F)(F)C6)c5)nc4c3Cl)cc2[nH]1` [Compound 252], for which the IC50 in test [1] was 20 to 100 nM; in test [2], 20 to 100 nM; in test [3] it was ≥ 400 nM; in test [4] it was 20 to 100 nM.

As to `Cc1nc2ccc(Oc3ccc4ncc(-c5cnn(CC6(F)CC6)c5)nc4c3Cl)cc2[nH]1` [Compound 253], the IC50 was 100 to 400 nM in test [1], 100 to 400 nM in test [2], ≥ 400 nM in test [3] and 100 to 400 nM in test [4].

Regarding `Cc1nc2ccc(Oc3ccc4ncc(-c5cnn(C6CN(CC#N)C6)c5)nc4c3Cl)cc2[nH]1` [Compound 254], the IC50 in test [1] was 20 to 100 nM; in test [2] it was 20 to 100 nM; in test [3], ≥ 400 nM; in test [4] it was 20 to 100 nM.

Consider `Cc1nc2ccc(Oc3ccc4ncc(-c5cnn(C(C)(C)CC#N)c5)nc4c3Cl)cc2[nH]1` [Compound 255], for which the IC50 in test [1] was 20 to 100 nM; in test [2], 20 to 100 nM; in test [3] it was ≥ 400 nM; in test [4] it was 20 to 100 nM.

Consider `Cc1nc2ccc(Oc3ccc4ncc(-c5cnn(C6CC7(CNC7)C6)c5)nc4c3Cl)cc2[nH]1` [Compound 256], for which the IC50 in test [1] is 100 to 400 nM; in test [2], 100 to 400 nM; in test [3], ≥ 400 nM; in test [4] it was 100 to 400 nM.

As for `Cc1nc2ccc(Oc3ccc4ncc(-c5cnn(CC6CC(C)(O)C6)c5)nc4c3Cl)cc2[nH]1` (stereo not drawn) [Compound 257], the half-maximal inhibitory concentration (IC50) in test [1] was < 20 nM; in test [2], 20 to 100 nM; in test [3], 100 to 400 nM; in test [4], < 20 nM.

As to `Cc1nc2ccc(Oc3ccc4ncc(-c5cnn(C6CC(O)C6)c5)nc4c3Cl)cc2[nH]1` (stereo not drawn) [Compound 258], the IC50 was 20 to 100 nM in test [1], 20 to 100 nM in test [2], ≥ 400 nM in test [3] and 20 to 100 nM in test [4].

On to `Cc1nc2ccc(Oc3ccc4ncc(-c5cnn(CC6(O)CC6)c5)nc4c3Cl)cc2[nH]1` [Compound 259], for which the half-maximal inhibitory concentration (IC50) in test [1] was 20 to 100 nM; in test [2] it was 20 to 100 nM; in test [3], ≥ 400 nM; in test [4], 20 to 100 nM.

In the case of `COC1CCN(CCn2cc(-c3cnc4ccc(Oc5ccc6nc(C)[nH]c6c5)c(Cl)c4n3)cn2)C1` (stereo not drawn) [Compound 260], the IC50 is 20 to 100 nM in test [1], 20 to 100 nM in test [2], 100 to 400 nM in test [3] and 20 to 100 nM in test [4].

In the case of `Cc1nc2ccc(Oc3ccc4ncc(-c5cnn([C@H]6CCN(CC(F)(F)F)C[C@@H]6F)c5)nc4c3Cl)cc2[nH]1` [Compound 262], the IC50 was 20 to 100 nM in test [1], 100 to 400 nM in test [2], ≥ 400 nM in test [3] and 20 to 100 nM in test [4].

`Cc1nc2ccc(Oc3ccc4ncc(-c5cnn(C6CCNCC6)c5C)nc4c3Cl)cc2[nH]1` [Compound 263]: the IC50 in test [1] was 100 to 400 nM; in test [2] it was 100 to 400 nM; in test [3] it was ≥ 400 nM; in test [4] it was 100 to 400 nM.

Consider `Cc1nc2ccc(Oc3ccc4ncc(-c5cn(C6CCNCC6)nc5C)nc4c3Cl)cc2[nH]1` [Compound 264], for which the IC50 in test [1] lay in the range of 20 to 100 nM; in test [2], 20 to 100 nM; in test [3] it was 100 to 400 nM; in test [4], 20 to 100 nM.

With `Cc1nc2ccc(Oc3ccc4ncc(-c5cnn(C6CC(N7CC(F)(F)C7)C6)c5)nc4c3Cl)cc2[nH]1` (stereo not drawn) [Compound 265], the half-inhibitory concentration (IC50) is 20 to 100 nM in test [1], 20 to 100 nM in test [2], 100 to 400 nM in test [3] and 20 to 100 nM in test [4].

As to `Cc1nc2cc(Oc3ccc4ncc(-c5cnn(CC6CC(F)(F)C6)c5)nc4c3Cl)cc(F)c2[nH]1` [Compound 266], the 50% inhibitory concentration (IC50) is 100 to 400 nM in test [1], 100 to 400 nM in test [2], ≥ 400 nM in test [3] and 100 to 400 nM in test [4].

In the case of `Cc1nc2ccc(Oc3ccc4ncc(-c5cnn(CCN6CCC(O)C6)c5)nc4c3Cl)cc2[nH]1` (stereo not drawn) [Compound 267], the half-inhibitory concentration (IC50) in test [1] is 20 to 100 nM; in test [2], 20 to 100 nM; in test [3], ≥ 400 nM; in test [4] it was 20 to 100 nM.

Regarding `Cc1nc2ccc(Oc3ccc4ncc(-c5cnn(CCO)c5)nc4c3Cl)c(F)c2[nH]1` [Compound 268], the IC50 is 20 to 100 nM in test [1], 20 to 100 nM in test [2], ≥ 400 nM in test [3] and 20 to 100 nM in test [4].

Consider `Cc1nc2ccc(Oc3ccc4ncc(-c5cnn(CC(=O)O)c5)nc4c3Cl)cc2[nH]1` [Compound 269], for which the IC50 in test [1], in test [2], in test [3] and in test [4] was ≥ 400 nM in each case.

In the case of `Cc1nc2ccc(Oc3ccc4ncc(-c5cnn(CC(=O)N6CCS(=O)(=O)CC6)c5)nc4c3Cl)cc2[nH]1` [Compound 270], the IC50 in test [1] is 100 to 400 nM; in test [2] it was ≥ 400 nM; in test [3], ≥ 400 nM; in test [4], 20 to 100 nM.

Consider `Cc1nc2ccc(Oc3ccc4ncc(-c5cnn(CC6CN(C)CCO6)c5)nc4c3Cl)cc2[nH]1` (stereo not drawn) [Compound 271], for which the 50% inhibitory concentration (IC50) in test [1] is 20 to 100 nM; in test [2], 20 to 100 nM; in test [3], ≥ 400 nM; in test [4], < 20 nM.

Consider `Cc1nc2ccc(Oc3ccc4ncc(-c5cnn(CC(C)(C)C#N)c5)nc4c3Cl)cc2[nH]1` [Compound 272], for which the half-inhibitory concentration (IC50) in test [1] was 20 to 100 nM; in test [2] it was 20 to 100 nM; in test [3], ≥ 400 nM; in test [4], 20 to 100 nM.

With `Cc1nc2ccc(Oc3ccc4ncc(-c5cnn(CC6CNCCO6)c5)nc4c3Cl)cc2[nH]1` (stereo not drawn) [Compound 273], the 50% inhibitory concentration (IC50) was 20 to 100 nM in test [1], 20 to 100 nM in test [2], ≥ 400 nM in test [3] and 20 to 100 nM in test [4].

Turning to `Cc1nc2ccc(Oc3ccc4ncc(-c5cnn(CC(C)(C)C(N)=O)c5)nc4c3Cl)cc2[nH]1` [Compound 274], the half-maximal inhibitory concentration (IC50) in test [1] is 20 to 100 nM; in test [2], 20 to 100 nM; in test [3], ≥ 400 nM; in test [4], 20 to 100 nM.

Turning to `Cc1nc2ccc(Oc3ccc4ncc(-c5cnn(CC6CC(F)(F)C6)c5C)nc4c3Cl)cc2[nH]1` [Compound 275], the IC50 in test [1] is ≥ 400 nM; in test [2] it was 100 to 400 nM; in test [3] it was ≥ 400 nM; in test [4], ≥ 400 nM.

`Cc1nc2ccc(Oc3ccc4ncc(-c5cn(CC6CC(F)(F)C6)nc5C)nc4c3Cl)cc2[nH]1` [Compound 276]: the half-inhibitory concentration (IC50) is 100 to 400 nM in test [1], 100 to 400 nM in test [2], ≥ 400 nM in test [3] and 20 to 100 nM in test [4].

Turning to `COC1CCN(C(=O)Cn2cc(-c3cnc4ccc(Oc5ccc6nc(C)[nH]c6c5)c(Cl)c4n3)cn2)C1` (stereo not drawn) [Compound 277], the half-inhibitory concentration (IC50) was 20 to 100 nM in test [1], 100 to 400 nM in test [2], ≥ 400 nM in test [3] and 20 to 100 nM in test [4].
